# Results as given in patent publication US4794183A, “Certain tetrahydro-furan or pyran phosphate-ethylene or propylene ammonium derivatives” (Sankyo Company Limited, priority 1985, dated 1988).
# Like-named read-outs stand apart in the source and are kept apart here.
# Experiments:
# sarcoma 180 = assay: Anti-tumor effect, survival of mice transplanted intraperitoneally with sarcoma 180 ascites cells; format: in vivo, mice (ICR/Jcl strain, female); conditions: for ILS (increase in lifespan) / No. surviving after 60 days: single dose, intraperitoneal; for ILS (increase in lifespan): (Tt-Tc) as percentage of Tc; for No. surviving after 60 days: survivors/number in test group; for mice kept alive at the end of 60 days: text summary of Table 8, dose not stated
# Procedure: The test animals used were 8 week old female mice of the ICR/Jcl strain and were employed in groups of 5 mice for each test. Into each mouse were transplanted intraperitoneally 1×10^5 ascites cells of sarcoma 180. The day after transplantation, the test compound, dissolved in sterilized physiological saline, was administered in a single dose (in the amount shown in the following Table 8) intraperitoneally to the animals. A control group was given an intraperitoneal administration of sterilized physiological saline without any active compound. The results are reported in the following Table 8 as follows: Tt /Tc, where Tt is the mean survival time (in days) of the mice of a test group (i.e. to which one of the test compound was administered) and Tc is the mean survival time (in days) of the control group; ILS (%), i.e. the increase in lifespan, which is calculated as (Tt -Tc) expressed as a percentage of Tc; and number surviving after 60 days, in which the first number is the number of animals surviving, and the second number is the number in the test group.
# [1] = system: rabbits' platelet-rich plasma; assay: Platelet aggregating activity using rabbits' platelet-rich plasma (method of Born et al.); format: cell-based, rabbit; conditions: Oryctolagus cuniculus, read-out: Platelet aggregating effect (EC50)
# Procedure: The platelet aggregating activity of the compounds of the invention using rabbits' platelet-rich plasma was examined by the method of Born et al. [Born et al., J. Physiol., 162, 67-68 (1962)]. The EC50 values were calculated. As in Experiment 2, C16 PAF was used as a reference.
# [2] = rabbits' platelet-rich plasma, C16 PAF as reference
structure (smiles),measurement,setting,value
"CCCCCCCCCCCCCCCCOC[C@H]1OCC[C@@H]1OP(=O)([O-])OCC[N+](C)(C)C (relative stereo) [Example 5, dl-(trans-2-Hexadecyloxymethyltetrahydrofuran-3-yl) 2-(trimethylammonio)ethyl phosphate]",ILS (increase in lifespan),sarcoma 180; 5 mg/kg,157%
same,No. surviving after 60 days,sarcoma 180; 5 mg/kg,2/5
same,mice kept alive at the end of 60 days,sarcoma 180,2 of the 5
same,EC50,[1]; [2],> 100 µM
"CCCCCCCCCCCCCCCCOC[C@H]1OCCC[C@@H]1OP(=O)([O-])OCC[n+]1ccccc1 (relative stereo) [Example 6, dl-(trans-2-Hexadecyloxymethyltetrahydropyran-3-yl) 2-pyridinioethyl phosphate]",ILS (increase in lifespan),sarcoma 180; 20 mg/kg,155%
same,No. surviving after 60 days,sarcoma 180; 20 mg/kg,0/5
"CCCCCCCCCCCCCCCCOCC(COP(=O)([O-])OCC[N+](C)(C)C)OC(C)=O (stereo not shown) [C16 PAF, reference compound]",EC50,[1]; Platelet,0.009 µM
"CCCCCCCCCCCCCCCCO[C@@H]1CCCO[C@H]1COP(=O)([O-])OCC[N+](C)(C)C (relative stereo) [Example 3, dl-(trans-3-Hexadecyloxytetrahydropyran-2-yl)methyl 2-(trimethylammonio)ethyl phosphate]",ILS (increase in lifespan),sarcoma 180; 10 mg/kg,127%
same,No. surviving after 60 days,sarcoma 180; 10 mg/kg,1/5
same,EC50,[1]; [2],> 400 µM
"CCCCCCCCCCCCCCCCOC[C@H]1OCCC[C@@H]1OP(=O)([O-])OCC[N+](C)(C)C (relative stereo) [Example 1, dl-(trans-2-Hexadecyloxymethyltetrahydropyran-3-yl) 2-(trimethylammonio)ethyl phosphate]",ILS (increase in lifespan),sarcoma 180; 5 mg/kg,169%
same,No. surviving after 60 days,sarcoma 180; 5 mg/kg,2/5
same,ILS (increase in lifespan),sarcoma 180; 10 mg/kg,136%
same,No. surviving after 60 days,sarcoma 180; 10 mg/kg,1/5
same,mice kept alive at the end of 60 days,sarcoma 180,2 of the 5
same,EC50,[1]; [2],> 100 µM
